Measured values from ChEMBL document CHEMBL1143054, “Antimalarial linear lipopeptides from a Panamanian strain of the marine cyanobacterium Lyngbya majuscula” (J Nat Prod, 2007).
Non-standard residues stand in square brackets, D forms with d. Residues, ends and D or L forms follow the SMILES beside them. *: point of attachment. NMeY = CN[C@@H](Cc1ccc(O)cc1)C(=O)O; NMeF = CN[C@@H](Cc1ccccc1)C(=O)O; NMeV = CN[C@H](C(=O)O)C(C)C; X1 = C#CCCCCC(C)CC(C)C(=O)*; X2 = C#CCCCC[C@H](C)C(=O)*; NMeA = CN[C@@H](C)C(=O)O

Columns and labels:
Vero = test: Cytotoxicity against Vero cells after 4 hrs; assay type: cell-based; details: Chlorocebus sabaeus
Plasmodium falciparum = test: Antimalarial activity against chloroquine-resistant Plasmodium falciparum W2 by fluorimetry; assay type: functional, organism-based

Row | SMILES | IC50 (Vero) | IC50 (Plasmodium falciparum)
1 | C#CCCCCC(C)CC(C)C(=O)N(C)[C@@H](Cc1ccccc1)C(=O)N[C@@H](C)C(=O)N(C)[C@@H](C)C(=O)N(C)[C@@H](Cc1ccc(OC)cc1)C(N)=O (stereo partly specified) [CARMABIN A] (X1-[NMeF]A[NMeA][NMeY](Me)-NH2) | 9.8 µM | 1.4 µM
2 | C#CCCCC[C@H](C)C(=O)N(C)[C@@H](Cc1ccccc1)C(=O)N[C@@H](C)C(=O)N(C)[C@@H](C)C(=O)N(C)[C@@H](Cc1ccc(OC)cc1)C(N)=O [DRAGOMABIN] (X2-[NMeF]A[NMeA][NMeY](Me)-NH2) | 182 µM | 21 µM
3 | C#CCCCC[C@H](C)C(=O)N(C)[C@H](C(=O)N(C)[C@H](C(=O)N(C)[C@H](C(=O)N(C)[C@@H](Cc1ccccc1)C(N)=O)C(C)C)C(C)C)C(C)C [DRAGONAMIDE A] (X2-[NMeV][NMeV][NMeV][NMeF]-NH2) | 67.8 µM | 10.7 µM
